Laboratory results as given in patent publication US9212349B2, “Method to produce virus in cultured cells” (priority 2011, dated 2015).

What was measured:
[1] = test system: VZV; experiment: Yield of cell-free infectious VZV from infected MRC5 cells, plaque assay on ARPE-19 cells; assay type: cell-based, varicella zoster virus; conditions: Example 6; MOI 1:100, 72 hours after infection; HSA, DHA 25 μM, AA 100 μM, with 10 μM α-T; cholesterol 13 μM
[2] = test system: VZV; experiment: as above; assay type: cell-based, varicella zoster virus; conditions: for VZV yield, fold change relative to NT / VZV yield in comparison to no treatment: MOI 1:50, 72 h; for VZV yield in comparison to no treatment: Example 5, lipids at 6 hpi plus 10 μM αT, HSA, OSA 25 μM, sonicated immediately
Method: For this test, MRC5 cells (passage 20-25) were seeded at a density of 300.000 cell/100 mm culture dish and grown in 15 ml of DMEM containing 10% fetal calf serum plus 2 mM glutamax (Invitrogen) at 35° C. A lipid mixture (LM-1, 1 ml/liter medium, Sigma Aldrich #L5146) was added to the cells either at the time of seeding or 1 day after seeding. Three days later, the culture medium was replaced with 10 ml growth medium containing 50 mM sucrose as a stabilizer. The cells were further incubated for 3 days and growth medium was replaced with fresh medium containing no sucrose. After cells reached confluence, they were infected with VZV by adding infected cells (1 infected cell/50 uninfected cells; infected cells were from a preparation frozen in a solution of 10% DMSO plus 90% fetal calf serum and stored in liquid nitrogen). At the time of infection, the cultures were re-fed with DMEM containing 10% fetal calf serum plus 2 mM glutamax. Arachidonic acid (AA)+alpha-tocopherol (αT) or DHA+αT were added at the indicated times. 72 hours after infection, cells were washed twice with PBS, and incubated in 10 ml of PBS containing 50 mM ammonium chloride for 50 minutes at 4° C. The cells were harvested and frozen in PSGC buffer (Harper et al., Arch Virol 143:1163-70, 1998) at −80° C. Infectious virus was subsequently quantified by plaque assay of sonicated cells on ARPE-19 cells (American Type Culture Collection). Results are set out in FIG. 3.
Briefly, in these repeat experiments, MRC5 cells were infected with VZV at an MOI=1:50. AA, DHA, and αT were added to the cells at 6 hpi as indicated. 72 hours after infection, the cells were harvested into PSGC buffer and frozen at −80° C. for later processing. After thawing, the cells were sonicated and the yield of cell free VZV quantified by standard plaque assay on ARPE-19 cells. Fold change relative to no treatment (NT) is shown. […] The fold-changes are the average of two independent infections.
In brief, MRC5 cells were infected with VZV at an M01=1:50. Lipid mixture 1(LM-1) was added to the cells immediately after cell seeding. At 6 hours after infection, up to about 100 μM AA or […] was added to cells together with up to about 10 μM αT. 72 hours after infection, the cells were harvested into PSGC buffer and either frozen at −80° C. and sonicated later for the release of virus (frozen cells) or immediately sonicated after harvesting and supernatants containing the cell-free VZV were frozen at −80° C. (frozen sup.) prior to titration. Cell-free VZV yield was quantified by plaque assay on APRE-19 cells. Fold change relative to no treatment (NT) is shown. The numbers above the bars indicate the amount of virus obtained per ml in the corresponding treatment. The results are set out in FIG. 5.
Briefly, MRC5 cells were infected with VZV at an MOI=1:50. Six hours after infection cells were treated with indicated combinations of lipids plus 10 μM αT. Hexacosanoic acid (HSA) and octacosanoic acid (OSA) were dissolved in 20 mg/ml α-cyclodextin (Sigma-Aldrich) in PBS by sonication and added to a solution of 10 mg/ml fatty acid-free BSA (Sigma-Aldrich) in PBS (1:1, v/v) to give a stock concentration of 10 mM for each fatty acid. HSA, OSA, and DHA were used at 25 μM, and AA was used at 25 μM. Two sets of fatty acid concentrations was used for combination treatments: DHA, AA, and HSA was either added at concentrations of 25 μM, 100 μM, and 25 μM (high), or 10 μM, 50 μM, and 10 μM (low), respectively. 72 hours after infection, the cells were harvested into PSGC buffer, sonicated immediately and the yield of cell free VZV quantified by plaque assay on ARPE-19 cells. Fold change relative to no treatment (NT) is shown. The fold-changes are the average of two independent infections.
Briefly, MRC5 cells were grown in DMEM containing 10% fetal calf serum, 2 mM glutamax (Invitrogen) at 35° C. as described in the text. […]

[3] = test system: HCMV (AD169 strain); assay type: cell-based, human cytomegalovirus; conditions: for HCMV yield, fold change relative to no treatment (NT): MRC5, 0.5 IU/cell, additive 2 h after infection, OA/LA/LLA up to 100 μM, EPA 75 μM, DHA 50 μM, AG 250 μM, cholesterol 13 μM; for HCMV yield, fold change relative to no treatment (NT) / HCMV production relative to no treatment: 96 h; for Effect of including the fatty acid on the HCMV yield increase given by aminoguanidine: in the presence of aminoguanidine; for HCMV production relative to no treatment: Example 2, MRC5, 0.5 IU/cell, FIG. 2
Method: Cells were infected with the AD169 strain of HCMV at a multiplicity of 0.5 infectious units/cell, and immediately following a 2-hour adsorption period, cells were fed with medium (Dulbecco's Modified Eagle Medium, DMEM) containing 10% fetal calf serum plus various fatty acids, cholesterol and carbonyl scavenging compound. At 96 hours post infection, infectious virus in the medium was assayed by fluorescent focus assay using antibody to the HCMV IE1 protein.
Briefly, About 90% confluent MRC5 human fibroblasts were infected with HCMV at a multiplicity of 0.5 IU/cell. Two hours after infection, medium was replaced with fresh medium containing 10% fetal calf serum and either of oleic acid (OA, up to about 100 μM), linoliec acid (LA, up to about 100 μM), α-linolenic acid (LLA, up to about 100 μM), eicosapentaenoic acid (EPA, up to about 75 μM), or docosahexaenoic acid (DHA, up to about 50 μM). The experiment was also performed in the presence of either aminoguanidine (AG, up to about 250 μM) or cholesterol (chol., up to about 13 μM). Virus production at 96 hours after infection was determined by fluorescent focus assay in MRC-5 cells and shown as a fold change relative to no treatment (NT) which was 5×10^5 infectious units. The fold-changes are the average of two independent infections.
Briefly, about 90% confluent MRC5 fibroblasts were infected with HCMV at a multiplicity of 0.5 IU/cell. Two hours after infection, medium was replaced with fresh medium containing 10% fetal calf serum and α-tocopherol (α-T) or aminoguanidine (AG) at indicated concentrations. Virus production at 96 h after infection was determined by fluorescent focus assay in which MRC-5 cells and shown as a fold change relative to no treatment (NT). The fold-changes are the average of two independent infections. Results are set out in FIG. 2.

[4] = test system: MRC5 cells; experiment: Cytotoxicity evident upon visual inspection in VZV-infected MRC5 cells; assay type: cell-based, human; conditions: 100 μM
[5] = 25 μM fatty acid at 6 hpi, absence of αT

CCCCC/C=C\C/C=C\C/C=C\C/C=C\CCCC(=O)O [AA, Arachidonic acid]
VZV yield relative to no treatment [1]: elevated the yield of VZV | VZV yield, fold change relative to NT [2, 5]: enhanced the yield of virus | VZV yield, fold change relative to NT ([2]; 25 μM fatty acid at 6 hpi, presence of αT): increased the virus yield | VZV yield, fold change relative to NT ([2]; 100 μM fatty acid at 6 hpi, absence of αT): inhibited virus production | VZV yield, fold change relative to NT ([2]; 100 μM fatty acid at 6 hpi, presence of αT): 5 fold

CC/C=C\C/C=C\C/C=C\C/C=C\C/C=C\C/C=C\CCC(=O)O [DHA, docosahexaenoic acid]
HCMV yield, fold change relative to no treatment (NT) [3]: 4.6 fold | VZV yield, fold change relative to NT [2, 5]: about 1.5 fold | Cytotoxicity ([4]; absence of αT): toxic | Cytotoxicity ([4]; presence of αT): toxic

CC/C=C\C/C=C\C/C=C\C/C=C\C/C=C\CCCC(=O)O [EPA, eicosapentaenoic acid]
HCMV yield, fold change relative to no treatment (NT) [3]: 2.5 fold

CCCCCCCCCCCCCCCCCCCCCCCCCC(=O)O [HSA, hexacosanoic acid]
VZV yield relative to no treatment [1]: elevated the yield of VZV | VZV yield in comparison to no treatment [2]: improved virus yields

CCCCC/C=C\C/C=C\CCCCCCCC(=O)O [LA, linoleic acid]
HCMV yield, fold change relative to no treatment (NT) [3]: little effect on the yield | Effect of including the fatty acid on the HCMV yield increase given by aminoguanidine ([3]; MRC5, 96 h): reduced

CC/C=C\C/C=C\C/C=C\CCCCCCCC(=O)O [LLA, α-linolenic acid]
HCMV yield, fold change relative to no treatment (NT) [3]: about 1.2 fold | Effect of including the fatty acid on the HCMV yield increase given by aminoguanidine ([3]; MRC5, 96 h): reduced

CCCCCCCC/C=C\CCCCCCCC(=O)O [OA, oleic acid]
HCMV yield, fold change relative to no treatment (NT) [3]: reduced the yield | Effect of including the fatty acid on the HCMV yield increase given by aminoguanidine ([3]; MRC5, 96 h): reduced | Reduction of VZV production, factor ([2]; 100 μM): 2 fold | Cytotoxicity ([4]; absence of αT): without causing observable cellular toxicity

CCCCCCCCCCCCCCCCCCCCCCCCCCCC(=O)O [OSA, octacosanoic acid]
VZV yield in comparison to no treatment [2]: improved virus yields

N=C(N)NN [aminoguanidine]
HCMV production relative to no treatment [3]: enhances the production of HCMV | HCMV yield, fold change relative to no treatment (NT) [3]: about 2.6 fold

CC(C)CCC[C@@H](C)[C@H]1CC[C@H]2[C@@H]3CC=C4C[C@@H](O)CC[C@]4(C)[C@H]3CC[C@]12C [cholesterol]
HCMV yield, fold change relative to no treatment (NT) [3]: no effect | Effect of cholesterol on the enhancing effects of fatty acids on HCMV yield ([3]; MRC5, 96 h, cholesterol up to about 13 μM): did not improve, and in some cases inhibited

Cc1c(C)c2c(c(C)c1O)CC[C@@](C)(CCC[C@H](C)CCC[C@H](C)CCCC(C)C)O2 [αT, alpha-tocopherol]
HCMV production relative to no treatment [3]: enhances the production of HCMV
